Source: US11572590B2, “Methods for evaluating tumor cell spheroids using 3D microfluidic cell culture device” (Dana-Farber Cancer Institute, Inc., priority 2017, dated 2023)
Like-named read-outs stand apart in the source and are kept apart here.

Tests used:
Assay in all cases: SelectScreen Kinase Profiling, single point inhibition and IC50 for off-target kinases
Assay type in all cases: biochemical
[1] = molecular target: off-target kinases (Homo sapiens, UniProt O95819); settings: MAP4K4 (HGK), ATP Km app, ZLYTE
Chain of off-target kinases (Homo sapiens, UniProt O95819) (O95819 whole entry): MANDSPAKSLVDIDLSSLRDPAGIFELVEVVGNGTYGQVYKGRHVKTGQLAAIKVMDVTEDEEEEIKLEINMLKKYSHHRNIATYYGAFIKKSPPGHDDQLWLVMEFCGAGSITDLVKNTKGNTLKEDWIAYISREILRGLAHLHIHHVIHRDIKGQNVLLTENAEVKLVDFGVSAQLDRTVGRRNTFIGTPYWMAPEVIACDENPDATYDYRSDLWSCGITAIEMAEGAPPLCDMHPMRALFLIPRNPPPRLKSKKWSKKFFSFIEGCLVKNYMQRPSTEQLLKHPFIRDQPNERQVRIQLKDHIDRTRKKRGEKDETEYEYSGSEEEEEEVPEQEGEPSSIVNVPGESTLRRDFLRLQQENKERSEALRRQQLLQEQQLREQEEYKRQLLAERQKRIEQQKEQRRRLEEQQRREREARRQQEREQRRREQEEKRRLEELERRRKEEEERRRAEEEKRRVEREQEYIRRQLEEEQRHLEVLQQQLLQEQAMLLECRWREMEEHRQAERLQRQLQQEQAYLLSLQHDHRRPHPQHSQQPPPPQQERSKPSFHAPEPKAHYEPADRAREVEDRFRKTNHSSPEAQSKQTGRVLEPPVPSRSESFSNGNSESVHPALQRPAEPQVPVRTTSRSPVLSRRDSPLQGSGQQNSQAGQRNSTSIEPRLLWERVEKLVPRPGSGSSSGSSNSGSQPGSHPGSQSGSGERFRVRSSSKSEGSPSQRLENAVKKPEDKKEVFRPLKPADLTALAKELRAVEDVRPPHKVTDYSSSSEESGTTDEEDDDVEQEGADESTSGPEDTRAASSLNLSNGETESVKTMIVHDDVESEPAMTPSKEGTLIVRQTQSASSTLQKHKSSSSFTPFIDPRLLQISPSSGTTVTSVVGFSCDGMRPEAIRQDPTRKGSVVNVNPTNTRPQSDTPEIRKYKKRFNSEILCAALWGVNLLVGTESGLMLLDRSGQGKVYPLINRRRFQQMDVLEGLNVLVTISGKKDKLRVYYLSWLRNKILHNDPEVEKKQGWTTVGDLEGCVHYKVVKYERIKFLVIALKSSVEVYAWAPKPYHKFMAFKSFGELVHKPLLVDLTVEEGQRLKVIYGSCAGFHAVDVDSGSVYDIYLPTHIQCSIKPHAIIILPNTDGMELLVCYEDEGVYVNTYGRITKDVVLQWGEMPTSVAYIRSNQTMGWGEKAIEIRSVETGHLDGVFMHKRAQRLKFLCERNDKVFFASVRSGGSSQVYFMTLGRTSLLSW

[2] = molecular target: off-target kinases (Homo sapiens, UniProt O96013); settings: PAK4, ATP Km app, ZLYTE
Chain of off-target kinases (Homo sapiens, UniProt O96013) (O96013 whole entry): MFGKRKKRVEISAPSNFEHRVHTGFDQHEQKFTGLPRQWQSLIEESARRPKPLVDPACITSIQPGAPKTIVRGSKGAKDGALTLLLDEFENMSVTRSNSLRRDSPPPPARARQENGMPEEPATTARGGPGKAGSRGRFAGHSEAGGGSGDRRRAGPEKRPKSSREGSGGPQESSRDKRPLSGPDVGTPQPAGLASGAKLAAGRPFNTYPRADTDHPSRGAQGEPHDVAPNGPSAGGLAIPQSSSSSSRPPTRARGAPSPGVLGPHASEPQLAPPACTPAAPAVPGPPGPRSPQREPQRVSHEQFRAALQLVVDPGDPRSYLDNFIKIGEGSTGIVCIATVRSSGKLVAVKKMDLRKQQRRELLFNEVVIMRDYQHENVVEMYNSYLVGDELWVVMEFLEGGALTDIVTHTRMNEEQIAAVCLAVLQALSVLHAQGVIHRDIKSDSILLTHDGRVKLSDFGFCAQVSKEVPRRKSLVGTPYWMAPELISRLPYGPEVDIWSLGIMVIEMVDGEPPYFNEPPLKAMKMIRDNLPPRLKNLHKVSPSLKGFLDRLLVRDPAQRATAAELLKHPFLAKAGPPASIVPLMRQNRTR

[3] = molecular target: off-target kinases (Homo sapiens, UniProt P16234, T674I); settings: PDGFRA T674I, mutant y, ZLYTE, ATP Km app
Chain of off-target kinases (Homo sapiens, UniProt P16234, T674I) (P16234 24-1089 T674I): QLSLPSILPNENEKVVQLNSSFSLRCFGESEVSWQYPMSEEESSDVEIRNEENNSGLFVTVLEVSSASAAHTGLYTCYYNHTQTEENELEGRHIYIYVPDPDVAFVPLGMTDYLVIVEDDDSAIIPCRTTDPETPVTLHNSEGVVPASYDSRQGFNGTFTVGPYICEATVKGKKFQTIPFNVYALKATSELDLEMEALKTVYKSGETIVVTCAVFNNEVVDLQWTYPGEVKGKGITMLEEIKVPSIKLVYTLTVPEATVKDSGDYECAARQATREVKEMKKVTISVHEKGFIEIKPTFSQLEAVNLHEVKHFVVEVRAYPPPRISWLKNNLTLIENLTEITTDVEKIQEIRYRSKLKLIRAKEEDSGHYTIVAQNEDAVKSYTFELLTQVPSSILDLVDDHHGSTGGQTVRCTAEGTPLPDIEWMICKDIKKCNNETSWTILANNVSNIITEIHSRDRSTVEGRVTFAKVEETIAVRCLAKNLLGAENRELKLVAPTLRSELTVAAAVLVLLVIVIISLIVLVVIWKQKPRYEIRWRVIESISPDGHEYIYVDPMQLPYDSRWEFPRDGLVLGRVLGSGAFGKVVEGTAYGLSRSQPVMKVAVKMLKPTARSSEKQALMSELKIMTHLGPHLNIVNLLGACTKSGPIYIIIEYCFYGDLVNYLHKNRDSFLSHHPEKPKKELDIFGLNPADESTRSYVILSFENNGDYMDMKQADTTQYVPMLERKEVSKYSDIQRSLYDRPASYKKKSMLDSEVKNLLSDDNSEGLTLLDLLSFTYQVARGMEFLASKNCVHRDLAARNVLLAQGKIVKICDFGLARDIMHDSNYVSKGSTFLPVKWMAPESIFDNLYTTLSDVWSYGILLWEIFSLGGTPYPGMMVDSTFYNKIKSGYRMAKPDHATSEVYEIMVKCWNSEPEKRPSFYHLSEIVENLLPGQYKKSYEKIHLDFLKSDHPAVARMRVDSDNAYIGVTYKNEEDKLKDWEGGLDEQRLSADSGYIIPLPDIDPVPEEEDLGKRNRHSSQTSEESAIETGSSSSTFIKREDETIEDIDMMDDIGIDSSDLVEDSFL

[4] = molecular target: T1, off-target kinases (Homo sapiens, UniProt P29322); settings: EPHA8, ZLYTE, ATP Km app
T1 sequence (P29322 28-1005): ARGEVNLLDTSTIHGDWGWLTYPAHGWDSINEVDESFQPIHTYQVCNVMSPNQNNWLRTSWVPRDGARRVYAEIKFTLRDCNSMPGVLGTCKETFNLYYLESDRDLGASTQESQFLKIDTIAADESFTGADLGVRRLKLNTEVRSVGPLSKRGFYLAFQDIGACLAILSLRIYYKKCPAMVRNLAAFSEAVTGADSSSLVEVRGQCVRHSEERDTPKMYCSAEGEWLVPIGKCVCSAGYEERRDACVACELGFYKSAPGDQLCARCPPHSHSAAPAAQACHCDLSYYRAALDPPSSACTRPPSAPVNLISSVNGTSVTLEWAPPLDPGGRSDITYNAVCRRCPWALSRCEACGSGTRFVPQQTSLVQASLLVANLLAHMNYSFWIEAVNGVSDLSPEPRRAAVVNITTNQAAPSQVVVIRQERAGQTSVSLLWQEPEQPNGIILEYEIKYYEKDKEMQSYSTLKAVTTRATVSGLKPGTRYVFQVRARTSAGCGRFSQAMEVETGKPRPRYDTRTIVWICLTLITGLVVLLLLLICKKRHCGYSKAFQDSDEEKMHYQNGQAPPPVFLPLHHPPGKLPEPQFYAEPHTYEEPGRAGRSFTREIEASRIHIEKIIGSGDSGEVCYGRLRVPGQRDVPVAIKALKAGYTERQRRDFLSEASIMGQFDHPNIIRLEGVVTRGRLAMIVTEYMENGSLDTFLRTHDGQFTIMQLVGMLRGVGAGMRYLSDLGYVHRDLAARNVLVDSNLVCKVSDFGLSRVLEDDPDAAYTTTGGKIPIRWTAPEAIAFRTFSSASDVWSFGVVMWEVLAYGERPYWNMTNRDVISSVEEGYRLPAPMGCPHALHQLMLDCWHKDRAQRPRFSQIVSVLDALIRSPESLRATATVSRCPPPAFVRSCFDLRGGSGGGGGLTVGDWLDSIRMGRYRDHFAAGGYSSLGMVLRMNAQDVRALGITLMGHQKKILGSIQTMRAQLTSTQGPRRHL

[5] = molecular target: off-target kinases (Homo sapiens, UniProt Q15375); settings: EPHA7, LanthaScreen Binding
Chain of off-target kinases (Homo sapiens, UniProt Q15375) (Q15375 28-998): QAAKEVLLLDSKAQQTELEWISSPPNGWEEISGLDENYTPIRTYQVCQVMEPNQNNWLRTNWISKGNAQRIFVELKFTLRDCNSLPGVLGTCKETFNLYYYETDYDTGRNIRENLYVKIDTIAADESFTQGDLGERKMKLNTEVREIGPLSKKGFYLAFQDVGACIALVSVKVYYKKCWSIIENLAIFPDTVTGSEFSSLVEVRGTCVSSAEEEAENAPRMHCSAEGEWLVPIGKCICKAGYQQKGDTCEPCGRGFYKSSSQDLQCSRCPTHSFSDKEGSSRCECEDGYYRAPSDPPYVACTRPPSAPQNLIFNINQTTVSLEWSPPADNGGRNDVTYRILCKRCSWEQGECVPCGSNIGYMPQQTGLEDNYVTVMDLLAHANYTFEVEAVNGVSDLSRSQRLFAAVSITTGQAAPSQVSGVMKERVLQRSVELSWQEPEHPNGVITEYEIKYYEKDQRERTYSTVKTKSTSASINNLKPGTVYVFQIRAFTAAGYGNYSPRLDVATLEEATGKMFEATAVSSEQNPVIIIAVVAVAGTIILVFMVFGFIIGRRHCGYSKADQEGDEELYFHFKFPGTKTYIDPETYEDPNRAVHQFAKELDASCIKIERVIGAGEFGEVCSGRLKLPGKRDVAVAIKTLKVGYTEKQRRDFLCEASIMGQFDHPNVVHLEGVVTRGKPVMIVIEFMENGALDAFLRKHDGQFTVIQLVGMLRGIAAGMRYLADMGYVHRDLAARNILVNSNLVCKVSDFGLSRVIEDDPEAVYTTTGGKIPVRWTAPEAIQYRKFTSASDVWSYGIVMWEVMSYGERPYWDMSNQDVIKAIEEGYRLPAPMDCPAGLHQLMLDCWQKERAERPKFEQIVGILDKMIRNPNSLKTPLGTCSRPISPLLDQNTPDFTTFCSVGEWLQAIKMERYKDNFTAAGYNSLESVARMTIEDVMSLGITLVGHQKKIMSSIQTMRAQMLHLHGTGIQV

[6] = molecular target: off-target kinases (Homo sapiens, UniProt Q8IU85); settings: CAMK1D (CaMKI delta), ZLYTE, ATP Km app
Chain of off-target kinases (Homo sapiens, UniProt Q8IU85) (Q8IU85 whole entry): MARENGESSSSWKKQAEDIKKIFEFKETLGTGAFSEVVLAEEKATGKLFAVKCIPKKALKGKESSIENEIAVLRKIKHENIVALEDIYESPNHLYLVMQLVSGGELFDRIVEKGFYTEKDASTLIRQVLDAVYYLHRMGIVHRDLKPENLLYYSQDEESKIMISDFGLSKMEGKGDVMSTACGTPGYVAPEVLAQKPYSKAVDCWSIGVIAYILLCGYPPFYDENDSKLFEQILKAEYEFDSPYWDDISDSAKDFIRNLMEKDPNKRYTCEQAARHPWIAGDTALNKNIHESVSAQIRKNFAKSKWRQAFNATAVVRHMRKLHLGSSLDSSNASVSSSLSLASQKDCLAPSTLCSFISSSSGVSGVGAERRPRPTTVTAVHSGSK

[7] = molecular target: off-target kinases (Homo sapiens, UniProt Q9UPE1); settings: STK23 (MSSK1), ZLYTE, ATP Km app
[8] = molecular target: off-target kinases (Homo sapiens, UniProt Q9Y243); settings: AKT3 (PKB gamma), ZLYTE, ATP Km app
Chain of off-target kinases (Homo sapiens, UniProt Q9Y243) (Q9Y243 whole entry): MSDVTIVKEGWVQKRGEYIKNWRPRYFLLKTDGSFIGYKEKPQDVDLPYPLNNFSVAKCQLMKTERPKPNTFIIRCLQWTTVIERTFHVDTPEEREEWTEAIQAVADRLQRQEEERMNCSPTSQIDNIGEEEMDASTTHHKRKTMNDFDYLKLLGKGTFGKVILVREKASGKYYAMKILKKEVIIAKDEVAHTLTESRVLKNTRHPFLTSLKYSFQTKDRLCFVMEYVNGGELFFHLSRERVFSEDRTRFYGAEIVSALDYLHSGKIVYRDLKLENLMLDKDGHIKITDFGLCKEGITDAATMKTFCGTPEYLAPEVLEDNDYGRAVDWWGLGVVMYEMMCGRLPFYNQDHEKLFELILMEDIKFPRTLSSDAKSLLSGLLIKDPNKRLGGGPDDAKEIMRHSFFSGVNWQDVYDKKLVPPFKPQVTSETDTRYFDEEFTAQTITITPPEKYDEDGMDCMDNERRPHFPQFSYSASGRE

[9] = system: off-target kinases

`N#Cc1cc(-c2ncnc(Nc3ccc(N4CCN(C5COC5)CC4)cc3)n2)ccc1OC1CCOCC1` [Compound 1, 5-(4-((4-(4-(oxetan-3-yl)piperazin-1-yl)phenyl)amino)-1,3,5-triazin-2-yl)-2-((tetrahydro-2H-pyran-4-yl)oxy)benzonitrile] showed an inhibition ([1]; read-out: % Inhibition 1) of 86%, an inhibition ([1]; read-out: % Inhibition 2) of 86% and an inhibition ([1]; read-out: % Inhibition Avg) of 86%. For the same molecule, the inhibition ([2]; read-out: % Inhibition 1) was 91%, the inhibition ([2]; read-out: % Inhibition 2) was 90% and the inhibition ([2]; read-out: % Inhibition Avg) was 90%. For the same molecule, the inhibition ([3]; read-out: % Inhibition 1) was 40%, the inhibition ([3]; read-out: % Inhibition 2) was 32% and the inhibition ([3]; read-out: % Inhibition Avg) was 36%. The inhibition ([4]; read-out: % Inhibition 1) was 11%, the inhibition ([4]; read-out: % Inhibition 2) was 7% and the inhibition ([4]; read-out: % Inhibition Avg) was 9%. The inhibition ([5]; read-out: % Inhibition 1) was 10%, the inhibition ([5]; read-out: % Inhibition 2) was 12% and the inhibition ([5]; read-out: % Inhibition Avg) was 11%. For the same molecule, the inhibition ([6]; read-out: % Inhibition 1) was 12%, the inhibition ([6]; read-out: % Inhibition 2) was 13% and the inhibition ([6]; read-out: % Inhibition Avg) was 12%. It also gave an inhibition ([7]; read-out: % Inhibition 1) of 2%, an inhibition ([7]; read-out: % Inhibition 2) of 1% and an inhibition ([7]; read-out: % Inhibition Avg) of 2%. It also gave an inhibition ([8]; read-out: % Inhibition 1) of 3%, an inhibition ([8]; read-out: % Inhibition 2) of 1% and an inhibition ([8]; read-out: % Inhibition Avg) of 2%. For the same molecule, the JAK inhibitory activity [9] was “lacks JAK inhibitory activity”.
